According to PubChem BioAssay AID2060361 (Molecular Pharmacology Branch, DTP, NCI, 2025):
Values joined by “and” are separate entries in the source; they are usually repeats but may differ in a detail not shown here. Equal entries are not always repeated.

System: 463943-066-T-J2-PDC tumor spheroids with HUVEC/MSC, viability
Assay: Anticancer human tumor 463943-066-T-J2-PDC patient-derived colon adenocarcinoma cell line growth inhibition [TAK]
Settings: for viability, T/C: stronger effect = lower value; active means viability on the fitted dose curve at most 10% of control; inactive means the rest
From the text: Combinatorial screen of targeted agents with TAK-243 and ipatasertib in multi-cell type tumor spheroids
A high-throughput screen of multi-cell type tumor spheroids was designed to identify active combinations of targeted small molecules and TAK-243 or ipatasertib. Complex spheroids include a stromal component modeled by human endothelial cells (HUVEC) and fibroblasts modeled by human mesenchymal stem cells (MSCs). The concentration ranges selected for each drug and investigational agent were based upon clinically achievable concentrations if the clinical Cmax of the agent was known.
Compounds. The drugs and investigational agents: TAK-243 (785004), ipatasertib (767898), everolimus (733504), selumetinib (741078), bortezomib (756655), trametinib (758246), ixazomib (758254), vemurafenib (761431), dabrafenib (764134), sapanisertib (764658), alpelisib (765974), and copanlisib (816437), were obtained from the National Cancer Institute (NCI) Developmental Therapeutics Program Chemical Repository. The FDA-approved anticancer drug set is available from the NCI Developmental Therapeutics Program. […] The stock solutions were prepared in dimethyl sulfoxide (DMSO, Sigma-Aldrich, St. Louis, MO, cat. D2650) at 800-fold the tested concentration and stored at -70 degrees C prior to their use. All drugs and investigational agents were tested over a range starting from a high concentration at or near the clinical Cmax and decreasing in half-log increments. If the clinical Cmax for an agent had not been determined, the highest concentration tested was 10 microM.
NCI60 Cell Culture. NCI60 cell lines were obtained from the NCI Developmental Therapeutics Program Tumor Repository. For each lot of cells, the Repository performed Applied Biosystems AmpFLSTR Identifiler testing with PCR amplification to confirm consistency with the published Identifier STR profile for each cell line. Cells were kept in continuous culture for no more than 20 passages. The optimal seeding densities for each of the cell lines at each time point assessed were determined prior to performing the concentration response studies. Briefly, the NCI60 human tumor lines were grown as monolayers in RPMI 1640 medium supplemented with 10% FBS and 2 mmol/L L-glutamine.
An additional 2 lines were from the NCI60 cell line panel including melanomas, MALME-3M and SK-MEL-2. Pooled donor human umbilical vein endothelial cells (HUVEC, Lonza, cat. CC-2519) and human mesenchymal stem cells (hMSC, Lonza, cat. PT-2501) were purchased from Lonza (Walkersville, MD).
PDMR cell lines were grown in complete medium (DC medium): Dulbecco's modified Eagle's medium (DMEM)/F12 supplemented with 5% fetal bovine serum (FBS), 2 mM L-glutamine, 100 U/mL penicillin and 100 µg/ml streptomycin, 0.4 µg/ml hydrocortisone, 10 ng/ml epidermal growth factor (EGF) recombinant human protein, 24 µg/mL adenine, and 0.1 mg/mL primocin. During culture from frozen stock vials, PDMR cells were cultured in the same medium containing 10 µM Y-27632 (see Table 3). The PDCs were cultured in complete DMEM/F12 media without 10 microM Y-27632 dihydrochloride for at least two passages prior to the screen. The pooled donor HUVEC and hMSC were cultured in endothelial cell growth medium 2 (PromoCell, Heidelberg, Germany, cat. C-22011) and mesenchymal stem cell growth medium 2 (PromoCell, cat. C-28009), respectively. For all experiments, HUVEC and hMSC were used at passages </=5.
For the pre-screen, cell seeding densities were determined from a titration spanning the range from 5,000 to 313 cells per well. The mct-spheroids including 60% malignant cells, 25% HUVEC and 15% MSC dispensed as a mixture into U-bottom Ultra-Low Attachment 384-well plates (Corning, NY)
High-throughput Drug Combination Screening.
Prior to their inoculation into 384-well plates, malignant cells, HUVEC, and hMSC were removed from T flasks using TrypLE express (Thermo Fisher Scientific, cat. 12605036) and harvested by centrifugation for 5 min at 233 x g. […]
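Further: spheroids exposed to drugs for seven days.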

CC(=O)Nc1cccc(-n2c(=O)n(C3CC3)c(=O)c3c(Nc4ccc(I)cc4F)n(C)c(=O)c(C)c32)c1
inactive: viability, T/C (compound 94.9 pM) 104% and 102% | viability, T/C (compound 0.0003 µM) 93.3% and 98.1% | viability, T/C (compound 0.000949 µM) 89.2% and 86.9% | viability, T/C (compound 0.003 µM) 86.5% and 68.9% | viability, T/C (compound 0.00949 µM) 81.9% and 67.4% | viability, T/C (compound 0.03 µM) 67.2% and 59.4%
> 30 nM: IC50 (curve of compound)

CC(C)(C)c1nc(-c2cccc(NS(=O)(=O)c3c(F)cccc3F)c2F)c(-c2ccnc(N)n2)s1
> 10000 nM: IC50 (curve of compound)
inactive: viability, T/C (compound 0.0316 µM) 116% and 108% | viability, T/C (compound 0.1 µM) 110% and 108% | viability, T/C (compound 0.316 µM) 113% and 103% | viability, T/C (compound 1 µM) 112% and 109% | viability, T/C (compound 3.16 µM) 109% and 116% | viability, T/C (compound 10 µM) 104% and 107%

CC(C)CC(NC(=O)C(Cc1ccccc1)NC(=O)c1cnccn1)B(O)O (stereo not drawn)
> 10 nM: IC50 (curve of compound)
inactive: viability, T/C (compound 31.6 pM) 106% and 127% | viability, T/C (compound 0.0001 µM) 109% and 112% | viability, T/C (compound 0.000316 µM) 97.4% and 97.8% | viability, T/C (compound 0.001 µM) 87.7% and 98.7% | viability, T/C (compound 0.00316 µM) 90.2% and 85.5% | viability, T/C (compound 0.01 µM) 70.7% and 80.7%

CC(C)CC(NC(=O)CNC(=O)c1cc(Cl)ccc1Cl)B1OC(=O)CC(CC(=O)O)(C(=O)O)O1 (stereo not drawn)
> 100 nM: IC50 (curve of compound)
inactive: viability, T/C (compound 0.000316 µM) 109% and 95.1% | viability, T/C (compound 0.001 µM) 108% and 96.2% | viability, T/C (compound 0.00316 µM) 122% and 97.5% | viability, T/C (compound 0.01 µM) 100% and 95.3% | viability, T/C (compound 0.0316 µM) 82.2% and 73.6% | viability, T/C (compound 0.1 µM) 81.4% and 74.8%

CC(C)NCC(C(=O)N1CCN(c2ncnc3c2C(C)CC3O)CC1)c1ccc(Cl)cc1 (stereo not drawn)
> 30000 nM: IC50 (compound alone, run of 02/28/2020)
inactive: viability, T/C (compound 0.3 µM) 94.2% [middle of 10 runs] | viability, T/C (compound 3 µM) 86.9% [middle of 10 runs]

CC(C)n1nc(-c2ccc3oc(N)nc3c2)c2c(N)ncnc21
inactive: viability, T/C (compound 0.000316 µM) 115% and 102% | viability, T/C (compound 0.001 µM) 103% | viability, T/C (compound 0.00316 µM) 93.7% and 84.9% | viability, T/C (compound 0.01 µM) 75.8% and 92.2% | viability, T/C (compound 0.0316 µM) 83.8% and 77.3% | viability, T/C (compound 0.1 µM) 82.8% and 76.9%
> 100 nM: IC50 (curve of compound)

CCCS(=O)(=O)Nc1ccc(F)c(C(=O)c2c[nH]c3ncc(-c4ccc(Cl)cc4)cc23)c1F
inactive: viability, T/C (compound 0.316 µM) 108% and 97.6% | viability, T/C (compound 1 µM) 107% and 112% | viability, T/C (compound 3.16 µM) 109% and 126% | viability, T/C (compound 10 µM) 95.6% and 103% | viability, T/C (compound 31.6 µM) 122% and 118% | viability, T/C (compound 100 µM) 122% and 124%
> 100000 nM: IC50 (curve of compound)

COC1CC2CCC(C)C(O)(O2)C(=O)C(=O)N2CCCCC2C(=O)OC(C(C)CC2CCC(OCCO)C(OC)C2)CC(=O)C(C)C=C(C)C(O)C(OC)C(=O)C(C)CC(C)C=CC=CC=C1C (stereo not drawn)
> 100 nM: IC50 (curve of compound)
inactive: viability, T/C (compound 0.000316 µM) 101% and 107% | viability, T/C (compound 0.001 µM) 91% and 91.9% | viability, T/C (compound 0.00316 µM) 87.1% and 85.7% | viability, T/C (compound 0.01 µM) 83.7% and 89.1% | viability, T/C (compound 0.0316 µM) 85.6% and 91.5% | viability, T/C (compound 0.1 µM) 76.8% and 86%

COc1c(OCCCN2CCOCC2)ccc2c3n(c(=NC(=O)c4cnc(N)nc4)nc12)CCN3
inactive: viability, T/C (compound 0.00316 µM) 93.7% and 101% | viability, T/C (compound 0.01 µM) 88.3% and 90.3% | viability, T/C (compound 0.0316 µM) 84.4% and 86.9% | viability, T/C (compound 0.1 µM) 80.3% and 85% | viability, T/C (compound 0.316 µM) 77.4% and 77.2% | viability, T/C (compound 1 µM) 68.1% and 72.1%
> 1000 nM: IC50 (curve of compound)

Cc1nc(NC(=O)N2CCCC2C(N)=O)sc1-c1ccnc(C(C)(C)C(F)(F)F)c1 (stereo not drawn)
inactive: viability, T/C (compound 0.0316 µM) 96.2% and 102% | viability, T/C (compound 0.1 µM) 103% and 91.1% | viability, T/C (compound 0.316 µM) 87.7% and 90.1% | viability, T/C (compound 1 µM) 78.6% and 84.6% | viability, T/C (compound 3.16 µM) 81.1% and 78.6% | viability, T/C (compound 10 µM) 78.6% and 73.7%
> 10000 nM: IC50 (curve of compound)

Cn1cnc2c(F)c(Nc3ccc(Br)cc3Cl)c(C(=O)NOCCO)cc21
> 3000 nM: IC50 (curve of compound)
inactive: viability, T/C (compound 0.00949 µM) 101% and 106% | viability, T/C (compound 0.03 µM) 99.1% and 108% | viability, T/C (compound 0.0949 µM) 77.1% and 84% | viability, T/C (compound 0.3 µM) 85.9% and 76% | viability, T/C (compound 0.949 µM) 64.1% and 78.2% | viability, T/C (compound 3 µM) 62.4% and 57.4%

COC1CC2CCC(C)C(O)(O2)C(=O)C(=O)N2CCCCC2C(=O)OC(C(C)CC2CCC(OCCO)C(OC)C2)CC(=O)C(C)C=C(C)C(O)C(OC)C(=O)C(C)CC(C)C=CC=CC=C1C (stereo not drawn) + CC(C)NCC(C(=O)N1CCN(c2ncnc3c2C(C)CC3O)CC1)c1ccc(Cl)cc1
inactive: viability, T/C (second compound 0.3 µM, first compound 0.000316 µM) 91.7% | viability, T/C (second compound 0.3 µM, first compound 0.001 µM) 86.2% | viability, T/C (second compound 0.3 µM, first compound 0.00316 µM) 90.4% | viability, T/C (second compound 0.3 µM, first compound 0.01 µM) 74.8% | viability, T/C (second compound 0.3 µM, first compound 0.0316 µM) 86.5% | viability, T/C (second compound 0.3 µM, first compound 0.1 µM) 77.3% | viability, T/C (second compound 0.949 µM, first compound 0.000316 µM) 85.5% | viability, T/C (second compound 0.949 µM, first compound 0.001 µM) 90.9% | viability, T/C (second compound 0.949 µM, first compound 0.00316 µM) 83.2% | viability, T/C (second compound 0.949 µM, first compound 0.01 µM) 76.4% | viability, T/C (second compound 0.949 µM, first compound 0.0316 µM) 78.8% | viability, T/C (second compound 0.949 µM, first compound 0.1 µM) 80.7% | viability, T/C (second compound 3 µM, first compound 0.000316 µM) 86% | viability, T/C (second compound 3 µM, first compound 0.001 µM) 91.3% | viability, T/C (second compound 3 µM, first compound 0.00316 µM) 81.4% | viability, T/C (second compound 3 µM, first compound 0.01 µM) 80.3% | viability, T/C (second compound 3 µM, first compound 0.0316 µM) 78.2% | viability, T/C (second compound 3 µM, first compound 0.1 µM) 78.3% | viability, T/C (second compound 9.49 µM, first compound 0.000316 µM) 84.8% | viability, T/C (second compound 9.49 µM, first compound 0.001 µM) 76.7% | viability, T/C (second compound 9.49 µM, first compound 0.00316 µM) 81.5% | viability, T/C (second compound 9.49 µM, first compound 0.01 µM) 76.6% | viability, T/C (second compound 9.49 µM, first compound 0.0316 µM) 80% | viability, T/C (second compound 9.49 µM, first compound 0.1 µM) 78.6% | viability, T/C (second compound 30 µM, first compound 0.000316 µM) 85.8% | viability, T/C (second compound 30 µM, first compound 0.001 µM) 79.9% | viability, T/C (second compound 30 µM, first compound 0.00316 µM) 82.8% | viability, T/C (second compound 30 µM, first compound 0.01 µM) 78.8% | viability, T/C (second compound 30 µM, first compound 0.0316 µM) 73.1% | viability, T/C (second compound 30 µM, first compound 0.1 µM) 80.8%
> 100 nM: IC50 (curve of first compound, second compound 0.3 µM) | IC50 (curve of first compound, second compound 0.949 µM) | IC50 (curve of first compound, second compound 3 µM) | IC50 (curve of first compound, second compound 9.49 µM) | IC50 (curve of first compound, second compound 30 µM)
